Measurements reported in patent publication US9999222B2, “Herbicidal combination comprising azines” (BASF SE, priority 2014, dated 2018).
Where “and” joins values, the source holds several entries; their conditions need not be identical. Equal entries are not always repeated. Where two headings read alike, the source gives them in different places.

Key:
Test in all cases: Greenhouse test, pre-emergence treatment
ABUTH = format: in vivo, Abutilon theophrasti; details: Abutilon theophrasti, 480 h, 20 DAT, read-out: observed % activity
Summary of the method: (§1)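 Damage was rated on a 0-100 scale, with 100 meaning no emergence or full destruction of aerial parts. Observed combination effects were set against the additive Colby expectation E=X+Y−(X·Y/100). Spray liquor was water-based, from 10% emulsion concentrates, applied pre-emergence right after sowing in loamy sand (about 3.0% humus). Plants were held at 10-25 °C or 20-35 °C for 2 to 4 weeks.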

ALOMY = format: in vivo, Alopecurus myosuroides; details: Alopecurus myosuroides, pre-emergence, read-out: observed % activity; for inhibition at 8 g/ha: 8 g ai/ha; for inhibition at 16 g/ha: 16 g ai/ha
Summary of the method: as §1

POLCO = format: in vivo, Polygonum convolvulus
Summary of the method: as §1

AVEFA = format: in vivo, Avena fatua; details: for observed % activity: 20 DAT
Text: (§2) The culture containers used were plastic flowerpots containing loamy sand with approximately 3.0% of humus as the substrate. The seeds of the test plants were sown separately for each species.
(§3) For the pre-emergence treatment, the active ingredients, which had been suspended or emulsified in water, were applied directly after sowing by means of finely distributing nozzles. The containers were irrigated gently to promote germination and growth and subsequently covered with transparent plastic hoods until the plants had rooted. This cover caused uniform germination of the test plants, unless this had been impaired by the active ingredients.
(§4) Depending on the species, the plants were kept at 10-25° C. or 20-35° C., respectively.
(§5) The test period extended over 2 to 4 weeks. During this time, the plants were tended, and their response to the individual treatments was evaluated.
(§6) Evaluation was carried out using a scale from 0 to 100. 100 means no emergence of the plants, or complete destruction of at least the aerial moieties, and 0 means no damage, or normal course of growth. A moderate herbicidal activity is given at values of at least 60, a good herbicidal activity is given at values of at least 70, and a very good herbicidal activity is given at values of at least 85.
(§7) The respective stated components a and b, and if appropriate, c were formulated as a 10% by weight strength emulsion concentrate and, with addition of the amount of solvent system, introduced into the spray liquor used for applying the active compound.
(§8) In the examples, the solvent used was water.
(§9) In the examples below, using the method of S. R. Colby (1967) “Calculating synergistic and antagonistic responses of herbicide combinations”, Weeds 15, p. 22ff., the value E, which is expected if the activity of the individual active compounds is only additive, was calculated. E=X+Y−(X·Y/100) where • X=percent activity using active compound a at an application rate A; • Y=percent activity using active compound b at an application rate B; • E=expected activity (in %) by a+b at application rates A+B.
(§10) If the value found experimentally is higher than the value E calculated according to Colby, a synergistic effect is present.

BRADC = format: in vivo, Brachiaria decumbens; details: Urochloa decumbens, pre-emergence, read-out: observed % activity; for inhibition at 16 g/ha: 16 g ai/ha
Text: as §2, §3, §4, §5, §6, §7, §8, §9, §10

COMBE = format: in vivo, Commelina benghalensis; details: 20 DAT
Summary of the method: as §1

EPHHL = format: in vivo, Euphorbia heterophylla; details: 20 DAT
Summary of the method: as §1

GALAP = format: in vivo, Galium aparine
Summary of the method: as §1

GERPU = format: in vivo, Geranium pusillum; details: 20 DAT
Summary of the method: as §1

KCHSC = format: in vivo, Kochia scoparia; details: 20 DAT
Summary of the method: as §1

LOLMU = format: in vivo, Lolium multiflorum; details: Lolium multiflorum, pre-emergence, read-out: observed % activity; for inhibition at 8 g/ha: 8 g ai/ha; for inhibition at 16 g/ha: 16 g ai/ha
Summary of the method: as §1

PHACA = format: in vivo, Phalaris canariensis; details: for inhibition at 8 g/ha / inhibition at 16 g/ha: Phalaris canariensis, pre-emergence, read-out: observed % activity; for inhibition at 8 g/ha: 8 g ai/ha
Text: as §2, §3, §4, §5, §6, §7, §8, §9, §10

SIDRH = format: in vivo, Sida rhombifolia; details: 20 DAT
Summary of the method: as §1

SMILES: CC1(c2nc(N)nc(Nc3c(F)c(F)cc(F)c3F)n2)CCC1 [compound 8, 6-(1-methylcyclobutyl)-N4-(2,3,5,6-tetrafluorophenyl)-1,3,5-triazine-2,4-diamine]
- inhibition at 8 g/ha (ABUTH; 8 g ai/ha): 80%
- inhibition at 16 g/ha (ABUTH; 16 g ai/ha): 70%
- inhibition at 8 g/ha (ALOMY; 192 h, 8 DAT): 50%
- inhibition at 16 g/ha (ALOMY; 192 h, 8 DAT): 90%
- inhibition at 8 g/ha (ALOMY; 480 h, 20 DAT): 55%
- inhibition at 16 g/ha (ALOMY; 480 h, 20 DAT): 90%
- observed % activity (POLCO; 8 g ai/ha, 20 DAT): 0%
- observed % activity (POLCO; 16 g ai/ha, 20 DAT): 70%
- inhibition at 8 g/ha (POLCO; Fallopia convolvulus, pre-emergence, 192 h, 8 g ai/ha, 8 DAT, read-out: observed % activity): 65%
- inhibition at 16 g/ha (POLCO; Fallopia convolvulus, pre-emergence, 480 h, 16 g ai/ha, 20 DAT, read-out: observed % activity): 80%
- observed % activity (AVEFA; 8 g ai/ha): 5% and 10%
- observed % activity (AVEFA; 16 g ai/ha): 10%
- inhibition at 8 g/ha (AVEFA; Avena fatua, pre-emergence, 192 h, 8 g ai/ha, 8 DAT, read-out: observed % activity): 0%
- inhibition at 16 g/ha (AVEFA; Avena fatua, pre-emergence, 192 h, 16 g ai/ha, 8 DAT, read-out: observed % activity): 0%
- inhibition at 16 g/ha (BRADC; 192 h, 8 DAT): 60%
- inhibition at 8 g/ha (BRADC; 480 h, 8 g ai/ha, 20 DAT): 78%
- inhibition at 16 g/ha (BRADC; 480 h, 20 DAT): 70%
- observed % activity (COMBE; 8 g ai/ha): 50%
- observed % activity (COMBE; 16 g ai/ha): 80%
- inhibition at 8 g/ha (COMBE; Commelina benghalensis, pre-emergence, 480 h, 8 g ai/ha, read-out: observed % activity): 60%
- inhibition at 16 g/ha (COMBE; Commelina benghalensis, pre-emergence, 480 h, 16 g ai/ha, read-out: observed % activity): 65%
- observed % activity (EPHHL; 16 g ai/ha): 65%
- inhibition at 8 g/ha (EPHHL; Euphorbia heterophylla, pre-emergence, 480 h, 8 g ai/ha, read-out: observed % activity): 45%
- inhibition at 16 g/ha (EPHHL; Euphorbia heterophylla, pre-emergence, 480 h, 16 g ai/ha, read-out: observed % activity): 70%
- observed % activity (GALAP; 8 g ai/ha, 20 DAT): 20%
- inhibition at 16 g/ha (GALAP; Galium aparine, pre-emergence, 192 h, 16 g ai/ha, 8 DAT, read-out: observed % activity): 0%
- observed % activity (GERPU; 8 g ai/ha): 20%
- observed % activity (GERPU; 16 g ai/ha): 80%
- inhibition at 16 g/ha (GERPU; Geranium pusillum, pre-emergence, 480 h, 16 g ai/ha, read-out: observed % activity): 60%
- observed % activity (KCHSC; 8 g ai/ha): 70% and 80%
- observed % activity (KCHSC; 16 g ai/ha): 80%
- inhibition at 8 g/ha (KCHSC; Bassia scoparia, pre-emergence, 480 h, 8 g ai/ha, read-out: observed % activity): 90%
- inhibition at 16 g/ha (KCHSC; Bassia scoparia, pre-emergence, 480 h, 16 g ai/ha, read-out: observed % activity): 85%
- inhibition at 8 g/ha (LOLMU; 192 h, 8 DAT): 30%
- inhibition at 16 g/ha (LOLMU; 192 h, 8 DAT): 40%
- inhibition at 8 g/ha (LOLMU; 480 h, 20 DAT): 30%
- inhibition at 16 g/ha (LOLMU; 480 h, 20 DAT): 40%
- observed % activity (PHACA; 16 g ai/ha, 20 DAT): 60%
- inhibition at 8 g/ha (PHACA; 192 h, 8 DAT): 25%
- inhibition at 16 g/ha (PHACA; 192 h, 16 g ai/ha, 8 DAT): 40%
- inhibition at 8 g/ha (PHACA; 480 h, 20 DAT): 28%
- inhibition at 16 g/ha (PHACA; 480 h, 16 g ai/ha, 20 DAT): 50%
- observed % activity (SIDRH; 8 g ai/ha): 80%
- observed % activity (SIDRH; 16 g ai/ha): 80%
- inhibition at 8 g/ha (SIDRH; Sida rhombifolia, pre-emergence, 480 h, 8 g ai/ha, read-out: observed % activity): 65%
- inhibition at 16 g/ha (SIDRH; Sida rhombifolia, pre-emergence, 480 h, 16 g ai/ha, read-out: observed % activity): 85%
